Test results: BindingDB's records for doi:10.1021/cb500828m (Vanderbilt University, 2015)

Biological target: T1, Phospholipase D1 (Homo sapiens, UniProt Q13393)
T1 sequence (Q13393 whole entry): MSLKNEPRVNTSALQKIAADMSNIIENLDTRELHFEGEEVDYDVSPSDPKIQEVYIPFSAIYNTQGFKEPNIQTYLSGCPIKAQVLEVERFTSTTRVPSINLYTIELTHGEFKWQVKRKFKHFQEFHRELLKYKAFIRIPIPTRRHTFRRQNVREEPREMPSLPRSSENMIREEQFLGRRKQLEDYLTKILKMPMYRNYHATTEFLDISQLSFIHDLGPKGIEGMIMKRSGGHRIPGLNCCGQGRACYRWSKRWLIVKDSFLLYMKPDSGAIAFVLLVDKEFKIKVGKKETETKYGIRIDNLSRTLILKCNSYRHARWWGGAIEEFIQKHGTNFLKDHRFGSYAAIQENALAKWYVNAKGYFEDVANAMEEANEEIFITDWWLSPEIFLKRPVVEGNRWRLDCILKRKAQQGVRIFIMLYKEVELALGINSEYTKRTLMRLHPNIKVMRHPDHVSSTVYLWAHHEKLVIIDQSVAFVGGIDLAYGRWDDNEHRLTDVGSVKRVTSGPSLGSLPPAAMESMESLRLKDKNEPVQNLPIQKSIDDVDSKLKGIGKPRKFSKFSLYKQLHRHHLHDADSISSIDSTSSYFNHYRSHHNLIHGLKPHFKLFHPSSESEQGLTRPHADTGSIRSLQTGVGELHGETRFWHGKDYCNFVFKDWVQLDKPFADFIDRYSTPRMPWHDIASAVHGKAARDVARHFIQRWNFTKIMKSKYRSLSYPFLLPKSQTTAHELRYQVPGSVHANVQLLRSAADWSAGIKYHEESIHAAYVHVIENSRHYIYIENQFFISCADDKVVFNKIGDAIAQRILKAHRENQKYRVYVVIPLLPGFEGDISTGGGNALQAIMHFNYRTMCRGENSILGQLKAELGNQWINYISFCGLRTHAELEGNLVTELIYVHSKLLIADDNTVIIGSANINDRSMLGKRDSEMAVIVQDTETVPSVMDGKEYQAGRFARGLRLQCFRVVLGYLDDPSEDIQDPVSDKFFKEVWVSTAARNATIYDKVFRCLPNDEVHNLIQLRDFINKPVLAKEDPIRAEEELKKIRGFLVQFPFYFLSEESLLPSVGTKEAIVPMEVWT
Test: In vivo Deuterated 1-Butanol PLD Assay
Method: Cells were seeded into 12-well tissue culture plates to reach 90% confluence at the time of assay. All cell types, aside from the HEK293-gfpPLD2 cells, were serum-starved 18 h prior to experiment in DMEM, 0.5% FBS, 1% AA. Cells werepretreated in the presence of test compound (50 μM to 5 nM) or DMSO (vehicle control) in DMEM for 5 min at rt. After pretreatment, media was removed, and cells were treated with DMEM + 1 μM PMA + 0.3% 1-butanol-d10, and either test compound, DMSO vehicle control, or DMEM alone for 30 min at 37 °C. HEK293-gfpPLD2 cells were treated in the presence of DMEM + 0.3% 1-butanol-d10 and either test compound or DMSO but were not stimulated with PMA. After treatment, samples were extracted, and 1,2-dihexanoyl-snglycero-3-phosphomethanol ([…]) was added as an internal standard. The lipids were isolated, the solvent was evaporated, and the resulting lipid film was resuspended in MS solvent (9:1 methanol/chloroform + 1 μL of NH4OH). Samples were

## Oc1ccc(-c2sc3cc(O)ccc3c2-c2ccc(OCCN3CCCCC3)cc2)cc1 [Desketoraloxifene (10)]
  IC50: 6.1 µM
